Test results from ChEMBL document CHEMBL1201862, “PubChem BioAssay data set” (2004).
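Cells were grown in 96-well plates and exposed to each compound for 48 hours at five concentrations; endpoints were interpolated linearly between bracketing concentrations, or set to the highest concentration if not reached. At the GI50, growth is halved.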 The source made the active and inactive calls. Cut-off read from the data, not from the text of the source: active = GI50 up to about 1.1 µM and inactive = higher.

Tests used:
Test in all cases: DTP human tumour cell line panel, 48 h
MDA-MB-435 = test system: MDA-MB-435
UO-31 = test system: UO-31
SNB-75 = test system: SNB-75
K562 = test system: K562
HCC 2998 = test system: HCC 2998
OVCAR-5 = test system: OVCAR-5
SF-539 = test system: SF-539
UACC-257 = test system: UACC-257
MDA-N = test system: MDA-N
SK-OV-3 = test system: SK-OV-3
SNB-19 = test system: SNB-19
EKVX = test system: EKVX
NCI/ADR-RES = test system: NCI/ADR-RES
SW-620 = test system: SW-620
RXF 393 = test system: RXF 393
HOP-92 = test system: HOP-92
U-251 = test system: U-251
MDA-MB-231 = test system: MDA-MB-231
OVCAR-3 = test system: OVCAR-3

| Compound | GI50 (MDA-MB-435) | GI50 (UO-31) | GI50 (SNB-75) | GI50 (K562) | GI50 (HCC 2998) | GI50 (OVCAR-5) | GI50 (SF-539) | GI50 (UACC-257) | GI50 (MDA-N) | GI50 (SK-OV-3) | GI50 (SNB-19) | GI50 (EKVX) | GI50 (NCI/ADR-RES) | GI50 (SW-620) | GI50 (RXF 393) | GI50 (HOP-92) | GI50 (U-251) | GI50 (MDA-MB-231) | GI50 (OVCAR-3) |
| --- | --- | --- | --- | --- | --- | --- | --- | --- | --- | --- | --- | --- | --- | --- | --- | --- | --- | --- | --- |
| O=c1[nH]c2nc3ccccc3c(=O)n2/c1=C/c1cccs1 | > 100 µM (inactive) | > 100 µM (inactive) | 20.5 µM (inactive) | > 100 µM (inactive) | > 100 µM (inactive) | > 100 µM (inactive) | > 100 µM (inactive) | > 100 µM (inactive) | > 100 µM (inactive) | > 100 µM (inactive) | > 100 µM (inactive) | > 100 µM (inactive) | > 100 µM (inactive) | > 100 µM (inactive) | > 100 µM (inactive) | 87.7 µM (inactive) | > 100 µM (inactive) | > 100 µM (inactive) | > 100 µM (inactive) |
| CC(C)Cn1cnc2c(NCC(C)O)nc3ccccc3c21 (configuration not stated) | > 100 µM (inactive) | 38.9 µM (inactive) | 56.1 µM (inactive) | 61.4 µM (inactive) | > 100 µM (inactive) | > 100 µM (inactive) | > 100 µM (inactive) | > 100 µM (inactive) | > 100 µM (inactive) | > 100 µM (inactive) | > 100 µM (inactive) | 29 µM (inactive) | > 100 µM (inactive) | > 100 µM (inactive) | > 100 µM (inactive) | 27.9 µM (inactive) | > 100 µM (inactive) | > 100 µM (inactive) | > 100 µM (inactive) |
| OC1(c2ccccc2)c2ccccc2N=C2NCCN21 (configuration not stated) | > 100 µM (inactive) | 59.2 µM (inactive) | 91.4 µM (inactive) |  | 16.3 µM (inactive) | > 100 µM (inactive) | > 100 µM (inactive) | 31.1 µM (inactive) | 35.6 µM (inactive) | > 100 µM (inactive) | > 100 µM (inactive) | > 100 µM (inactive) | > 100 µM (inactive) | 84.7 µM (inactive) | 82.6 µM (inactive) | 54.5 µM (inactive) | 91.8 µM (inactive) | > 100 µM (inactive) | > 100 µM (inactive) |
| COc1ccc2nc3cc([N+](=O)[O-])ccc3c(NNc3ccc([N+](=O)[O-])cc3)c2c1 | 31.6 µM (inactive) | 24.7 µM (inactive) | 67.9 µM (inactive) | 7.19 µM (inactive) | 11.1 µM (inactive) | 3.91 µM (inactive) | 45.6 µM (inactive) | 1.83 µM (inactive) | 30.5 µM (inactive) | 98.4 µM (inactive) | 24 µM (inactive) | 44.1 µM (inactive) | 61.8 µM (inactive) | 9.02 µM (inactive) | 44.1 µM (inactive) | 26.7 µM (inactive) | 20.8 µM (inactive) | 44 µM (inactive) | 22.4 µM (inactive) |
| c1ccc(-c2nn(-c3ccccc3)[n+](-c3ccccc3)n2)cc1 [TETRAZOLIUM RED] | 11.1 µM (inactive) | > 100 µM (inactive) | > 67.6 µM (inactive) | 18.6 µM (inactive) | 1.53 µM (inactive) | 35.7 µM (inactive) | 33 µM (inactive) | 2.85 µM (inactive) | 12.9 µM (inactive) | > 100 µM (inactive) | > 35.6 µM (inactive) | 2.4 µM (inactive) | > 100 µM (inactive) | 16.1 µM (inactive) | 11.6 µM (inactive) | 24.1 µM (inactive) | 8.97 µM (inactive) | 20 µM (inactive) | 0.191 µM (active) |
| O=C(O)CN(CCNC(=O)OCC1c2ccccc2-c2ccccc21)CCNC(=O)OCC1c2ccccc2-c2ccccc21 | 19.1 µM (inactive) | 22.1 µM (inactive) | 29.6 µM (inactive) | 19 µM (inactive) | 35.6 µM (inactive) | 33.3 µM (inactive) | 25.4 µM (inactive) | 29.2 µM (inactive) | 20 µM (inactive) | 32.2 µM (inactive) | 29.6 µM (inactive) | 23.7 µM (inactive) | 45.2 µM (inactive) | 21.2 µM (inactive) | 36.1 µM (inactive) | 22.1 µM (inactive) | 20.1 µM (inactive) | 17.4 µM (inactive) | 18.1 µM (inactive) |
| COc1ccc(C[C@H]2COC(=O)[C@@H]2Cc2cc(OC)c(OC)c(OC)c2)cc1OC | > 81.1 µM (inactive) | 43.6 µM (inactive) | > 67.8 µM (inactive) | 77.8 µM (inactive) | > 81.7 µM (inactive) | > 100 µM (inactive) | > 100 µM (inactive) | > 75 µM (inactive) | 78.7 µM (inactive) | > 100 µM (inactive) | > 100 µM (inactive) | > 65.8 µM (inactive) | 41.1 µM (inactive) | > 100 µM (inactive) | > 54.5 µM (inactive) | 16 µM (inactive) | > 100 µM (inactive) | > 87.3 µM (inactive) | > 89.1 µM (inactive) |
| CN(C)Cc1cc(C=O)cc(CN(C)C)c1O | > 100 µM (inactive) | > 100 µM (inactive) | > 100 µM (inactive) | > 100 µM (inactive) | > 100 µM (inactive) |  | > 100 µM (inactive) | > 100 µM (inactive) | > 100 µM (inactive) |  | > 100 µM (inactive) | > 100 µM (inactive) | > 100 µM (inactive) | > 100 µM (inactive) | > 100 µM (inactive) | > 100 µM (inactive) | > 100 µM (inactive) | > 100 µM (inactive) | > 100 µM (inactive) |
| CCCNC(=O)CCC(C)[C@H]1CCC2C3C(C[C@H](OC(C)=O)[C@@]21C)[C@@]1(C)CCC2(C[C@H]1C[C@H]3OC(C)=O)OOC1(CCC(C)CC1)OO2 (some centres not stated) | 18.9 µM (inactive) | 0.959 µM (active) | 23 µM (inactive) | 33.2 µM (inactive) | 40.1 µM (inactive) | 29.2 µM (inactive) | 16.7 µM (inactive) | 23.2 µM (inactive) | 14.3 µM (inactive) | 60.5 µM (inactive) | 80.2 µM (inactive) | 13.6 µM (inactive) | 16.6 µM (inactive) |  | 50 µM (inactive) | 0.0447 µM (active) | 14.8 µM (inactive) | 29.1 µM (inactive) | 4.78 µM (inactive) |
| COc1ccc(C2CCc3nc4nc(N)nc(N)c4cc3C2)cc1 (configuration not stated) | 27.4 µM (inactive) |  | 1.67 µM (inactive) | 16.4 µM (inactive) | 31.8 µM (inactive) | > 100 µM (inactive) | 12.4 µM (inactive) | > 100 µM (inactive) | 38.3 µM (inactive) | 10.1 µM (inactive) | 6.65 µM (inactive) | 41.2 µM (inactive) | 39.2 µM (inactive) | 36.6 µM (inactive) | 16.3 µM (inactive) | 1.2 µM (inactive) | 9.64 µM (inactive) | 14.8 µM (inactive) | 17.3 µM (inactive) |
| CC(C)[C@]12O[C@H]1[C@@H]1O[C@@]13[C@@]1(C)CCC4=C(COC4=O)[C@@H]1C[C@@H]1O[C@@]13C2=O [TRIPTONIDE] | 0.0103 µM (active) | 0.0123 µM (active) | 0.0108 µM (active) | 0.0128 µM (active) | 0.029 µM (active) | 0.0317 µM (active) | 0.0171 µM (active) | < 0.0164 µM (active) | < 0.0113 µM (active) | 0.0397 µM (active) |  | 0.0287 µM (active) | 0.0386 µM (active) |  | < 0.01 µM (active) | 0.0237 µM (active) | 0.101 µM (active) | 0.0248 µM (active) | < 0.0133 µM (active) |
| CC(=O)N1N=C(c2c(O)ccc3ccccc23)CC1C(=O)c1ccco1 (configuration not stated) | 28.5 µM (inactive) | 21.6 µM (inactive) | 17.9 µM (inactive) | 16.9 µM (inactive) | 50.1 µM (inactive) | 55 µM (inactive) | 21.1 µM (inactive) | 31.6 µM (inactive) | 23.9 µM (inactive) | 48.6 µM (inactive) |  |  | 28.2 µM (inactive) | 33.7 µM (inactive) | 25.1 µM (inactive) | 52.7 µM (inactive) | 34.3 µM (inactive) | 18.4 µM (inactive) | 17.7 µM (inactive) |
| CCN(CC)CCN1C(=O)c2c(c(-c3ccccc3)c3ccccc3c2-c2ccccc2)C1=O | > 100 µM (inactive) |  | > 100 µM (inactive) | > 100 µM (inactive) | > 100 µM (inactive) | > 100 µM (inactive) | 54.1 µM (inactive) | > 100 µM (inactive) | > 100 µM (inactive) | > 100 µM (inactive) | 46.3 µM (inactive) | > 100 µM (inactive) | > 100 µM (inactive) | > 100 µM (inactive) | 25.8 µM (inactive) | 36.8 µM (inactive) | 81.7 µM (inactive) | > 100 µM (inactive) |  |
| CCOC(=O)C(C)(C)Oc1ccc(Cl)cc1 [CLOFIBRATE] | 601 µM (inactive) | 726 µM (inactive) | 229 µM (inactive) | > 1000 µM (inactive) | 505 µM (inactive) | 446 µM (inactive) | 366 µM (inactive) | 177 µM (inactive) | 566 µM (inactive) | 986 µM (inactive) | > 1000 µM (inactive) | 201 µM (inactive) | 285 µM (inactive) | 614 µM (inactive) | 160 µM (inactive) | 177 µM (inactive) | > 1000 µM (inactive) | > 1000 µM (inactive) |  |
| CC1=C/C(=N\N(C)C)C(C(O)(C(F)(F)F)C(F)(F)F)C(C)(C)C1 (configuration not stated) | > 100 µM (inactive) | > 100 µM (inactive) | 27.1 µM (inactive) | > 100 µM (inactive) | > 100 µM (inactive) | > 100 µM (inactive) | > 100 µM (inactive) | > 100 µM (inactive) | > 100 µM (inactive) |  | > 100 µM (inactive) | > 100 µM (inactive) | > 100 µM (inactive) | > 100 µM (inactive) | > 100 µM (inactive) | 0.169 µM (active) | > 100 µM (inactive) | > 100 µM (inactive) | 26.4 µM (inactive) |
